Assay results from patent publication US20060079453A1, “Hla binding peptides and their uses” (priority 2002, published 2006).
Values joined by “and” are separate entries in the source; they are usually repeats but may differ in a detail not shown here. Identical values can stand only once. Like-named read-outs stand apart in the source and are kept apart here. No end group written: not given here.

Tests used:
Assay in all cases: biochemical
[1] = molecular target: H-2Kk (Mus musculus, UniProt P04223); assay type: binding, murine
[2] = molecular target: HLA-B*1801 (Homo sapiens, UniProt P01889, A329T/A93T/A95T/C349S/D201E/D54G/D98Y/E176V/E187T/E204Q/E69T/K202T/Q94N/R155S/R180L/S121R/V306I/Y140S/Y195H/Y33H/Y91S); assay type: binding
[3] = molecular target: HLA-B*4002 (Homo sapiens, UniProt P01889, A65T/A93T/A95T/D138N/D201E/D98Y/E176V/E204Q/E69K/K202T/N87E/Q56L/Q94N/R180L/S48T/Y33H/Y91S); assay type: binding
[4] = molecular target: HLA-B*4403 (Homo sapiens, UniProt P01889, A223V/A65T/A93T/A95T/D201E/D98Y/E176V/E187L/E204Q/E69K/G107R/H137Y/K202T/L105A/L119I/N104T/N87E/Q56L/Q94N/R106L/R155S/R180L/S101N/S121R/S35A/S48T/T118I/V36M/W191S/Y140D/Y91S); assay type: binding
[5] = molecular target: HLA-B*4501 (Homo sapiens, UniProt P01889, A329T/A65T/A93T/A95T/C349S/D138N/D201E/D98Y/E176V/E187L/E204Q/E69K/H137Y/K202T/L119W/N87E/Q56L/Q94N/R155S/R180D/S121R/S35A/S48T/V127L/V306I/V36M/W191S/Y140L/Y33H/Y91S); assay type: binding
[6] = molecular target: HLA-B*4001 (Homo sapiens, UniProt P01889, A65T/A93T/A95T/D138N/D98Y/E176V/E69K/N87E/Q56L/Q94N/R180L/S121R/S35A/S48T/T167S/V36M/W171L/Y33H/Y91S); assay type: binding
[7] = molecular target: HLA-B*4402 (Homo sapiens, UniProt P01889, A223V/A65T/A93T/A95T/D201E/D98Y/E176V/E187L/E204Q/E69K/G107R/H137Y/K202T/L105A/L119I/N104T/N87E/Q56L/Q94N/R106L/R155S/R180D/S101N/S121R/S35A/S48T/T118I/V36M/W191S/Y140D/Y91S); assay type: binding
[8] = molecular target: H-2Ld (Mus musculus, UniProt P01897); assay type: binding, murine
[9] = molecular target: H-2 Db (Mus musculus, UniProt P01899); assay type: binding, murine; details: Db
[10] = molecular target: HLA-B*0702 (Homo sapiens, UniProt P01889); assay type: binding
[11] = molecular target: HLA-B*3501 (Homo sapiens, UniProt P01889, A329T/A93T/A95T/C349S/D201E/D98Y/E176V/E187L/E204Q/E69T/I218V/K202T/L119I/Q94N/R155S/R180L/S121R/S35A/S48A/T118I/V127L/V306I/V36M/Y140S/Y91F); details: B*3501 binding affinity (IC50)
[12] = molecular target: HLA-B*5301 (Homo sapiens, UniProt P01889, A329T/A93T/A95T/C349S/D201E/D98Y/E176V/E187L/E204Q/E69T/G107R/I218V/K202T/L105A/L119I/N104I/Q94N/R106L/R155S/R180L/S101N/S121R/S35A/S48A/T118I/V127L/V306I/V36M/Y140S/Y91F); assay type: binding
[13] = molecular target: HLA-B*5101 (Homo sapiens, UniProt P01889, A329T/A93T/A95T/C349S/D138N/D201E/D98Y/E187L/E204Q/E69T/G107R/I218V/K202T/L105A/L119W/N104I/Q94N/R106L/R155S/R180L/S101N/S121T/S35A/S48A/V306I/V36M/Y195H/Y91F); details: B*5101 binding affinity (IC50)
[14] = molecular target: HLA-B*5401 (Homo sapiens, UniProt P01889, A329T/C349S/D138N/D201E/E176V/E187T/E204Q/E69G/I76V/K202T/L119W/R155S/R180L/S121T/S35A/S48A/V127L/V306I/V36M/Y140L); assay type: binding

Chain of H-2Kk (P04223 22-369): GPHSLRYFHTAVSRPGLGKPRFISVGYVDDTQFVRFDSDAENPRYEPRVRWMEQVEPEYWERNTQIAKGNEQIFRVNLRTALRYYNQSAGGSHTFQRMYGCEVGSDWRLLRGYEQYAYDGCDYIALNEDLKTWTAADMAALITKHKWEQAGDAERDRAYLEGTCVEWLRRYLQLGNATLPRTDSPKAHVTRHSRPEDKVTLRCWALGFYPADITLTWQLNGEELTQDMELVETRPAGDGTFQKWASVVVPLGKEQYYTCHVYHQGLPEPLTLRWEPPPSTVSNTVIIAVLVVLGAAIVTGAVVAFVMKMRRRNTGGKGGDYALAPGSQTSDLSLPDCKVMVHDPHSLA
Chain of H-2Kk (P61769 21-119, further chain): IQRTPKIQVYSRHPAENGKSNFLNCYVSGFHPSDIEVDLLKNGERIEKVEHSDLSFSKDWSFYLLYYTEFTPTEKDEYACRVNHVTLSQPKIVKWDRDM
Chain of H-2Ld (P01897 25-362): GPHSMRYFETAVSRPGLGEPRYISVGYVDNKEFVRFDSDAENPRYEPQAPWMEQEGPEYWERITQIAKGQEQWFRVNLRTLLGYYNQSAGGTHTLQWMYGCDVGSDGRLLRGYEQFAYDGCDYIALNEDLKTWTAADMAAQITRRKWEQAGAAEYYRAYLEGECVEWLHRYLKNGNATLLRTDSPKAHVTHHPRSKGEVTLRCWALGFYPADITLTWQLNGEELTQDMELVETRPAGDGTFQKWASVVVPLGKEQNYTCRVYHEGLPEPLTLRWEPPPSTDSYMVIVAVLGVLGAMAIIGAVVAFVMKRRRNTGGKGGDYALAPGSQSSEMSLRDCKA
Chain of H-2Ld (P61769 21-119, further chain): as the sequence (P61769 21-119, further chain) above
Chain of H-2 Db (P61769 21-119): as the sequence (P61769 21-119, further chain) above
Chain of H-2 Db (P01899 25-362): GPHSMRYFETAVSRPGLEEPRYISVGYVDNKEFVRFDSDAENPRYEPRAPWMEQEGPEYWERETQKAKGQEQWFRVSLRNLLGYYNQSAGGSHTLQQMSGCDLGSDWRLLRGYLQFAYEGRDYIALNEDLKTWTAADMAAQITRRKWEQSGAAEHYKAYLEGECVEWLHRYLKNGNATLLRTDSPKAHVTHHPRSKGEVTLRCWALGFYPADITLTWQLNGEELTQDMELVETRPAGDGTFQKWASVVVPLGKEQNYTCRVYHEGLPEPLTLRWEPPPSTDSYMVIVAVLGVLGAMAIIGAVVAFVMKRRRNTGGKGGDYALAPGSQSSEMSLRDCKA

NEILIRCII
IC50 [1]: 12 nM
IC50 ([2]; B*1801): 5670 nM
IC50 ([3]; B*4002): 59 nM
IC50 ([4]; B*4403): 258 nM
IC50 ([5]; B*4501): 3250 nM

QEKKRHVDL
IC50 ([6]; B*4001): 16000 nM
IC50 [1]: 256 nM
IC50 ([2]; B*1801): 7.3 nM
IC50 ([7]; B*4402): 443 nM
IC50 ([3]; B*4002): 63100 nM
IC50 ([5]; B*4501): 12600 nM

RIPNASGVYM
IC50 ([8]; read-out: Ld): 19 nM

RPQASGVAM
IC50 ([8]; Ld): 12 nM

RPQASGVYM
IC50 [9]: > 44000 nM
IC50 ([8]; Ld): 0.99 nM and 3 nM

RPQASQVYM
IC50 ([8]; Ld): 3.8 nM

RPQGSGVYM
IC50 ([8]; Ld): 39 nM

RPQVPLRPI
IC50 ([10]; B*0702 binding affinity (IC50)): 367 nM
IC50 [11]: > 23200 nM
IC50 ([12]; B*5301 binding affinity (IC50)): 85300 nM
IC50 [13]: > 9000 nM

RPRGPGPGSEF
IC50 ([10]; B*0702 binding affinity (IC50)): 11 nM
IC50 [11]: 24900 nM
IC50 ([14]; B*5401 binding affinity (IC50)): 2740 nM
IC50 ([12]; B*5301 binding affinity (IC50)): 19300 nM
IC50 [13]: > 14800 nM

SDYEGRLI
IC50 [1]: 0.6 nM
IC50 [2]: > 24800 nM
IC50 [3]: 86 nM
IC50 [4]: 228 nM

SEAAYAKKI
IC50 ([6]; B*4001): 308 nM
IC50 [1]: 3.9 nM
IC50 ([2]; B*1801): 8610 nM
IC50 ([7]; B*4402): 1680 nM
IC50 ([4]; B*4403): 61 nM

SENDRYRLL
IC50 ([1]; read-out: Kk): 13 nM

SPGPGPGL
IC50 ([10]; B*0702 binding affinity (IC50)): 173 nM
IC50 [11]: 2340 nM
IC50 ([14]; B*5401 binding affinity (IC50)): 53300 nM
IC50 ([12]; B*5301 binding affinity (IC50)): 25600 nM
IC50 [13]: 3540 nM

TPAGPGPGVF
IC50 ([10]; B*0702 binding affinity (IC50)): 334 nM
IC50 [11]: 374 nM
IC50 ([12]; B*5301 binding affinity (IC50)): 2630 nM

TPAIRGPGPGF
IC50 ([10]; read-out: B*0702 binding affinity (IC50)): 144 nM
IC50 ([14]; read-out: B*5401 binding affinity (IC50)): 31800 nM
IC50 ([12]; read-out: B*5301 binding affinity (IC50)): 2740 nM

TPTGWGLAI
IC50 ([10]; B*0702 binding affinity (IC50)): 76 nM
IC50 [11]: 5140 nM
IC50 ([12]; B*5301 binding affinity (IC50)): 1340 nM

VESENKVV
IC50 [1]: 349 nM

YEANGNLI
IC50 [6]: 7.9 nM
IC50 [1]: 0.65 nM
IC50 [2]: 191 nM
IC50 [7]: 516 nM
IC50 [3]: 7 nM

YEDTGKTI
IC50 ([6]; B*4001): 794 nM
IC50 [1]: 0.86 nM
IC50 ([2]; B*1801): 14000 nM
IC50 ([7]; B*4402): 7910 nM
IC50 ([3]; B*4002): 83 nM
IC50 ([5]; read-out: B*4501): 49000 nM

YENDIEKKI
IC50 [1]: 3.8 nM
IC50 ([2]; B*1801): 31000 nM
IC50 ([7]; B*4402): 1730 nM
IC50 ([4]; B*4403): 371 nM

YPHFMLPTNL
IC50 ([8]; read-out: Ld): 7.5 nM
